Reference: patent EP0528172A1, “(2-Alkyl-3-pyridyl)methylpiperazine derivatives as PAF antagonists” (J. URIACH & CIA. S.A., priority 1991, dated 1993)
Read-outs that look alike come from different tables or passages of the source.

How the values were obtained:
[1] = tested on: platelet aggregation induced by PAF; assay: Inhibition of platelet aggregation induced by PAF (platelet rich plasma, Born nephelometric technique); type: cell-based, New Zealand albino rabbits; conditions: rabbit platelet rich plasma, PAF C₁₈ 16 nM final, concentration needed to inhibit platelet aggregation in a 50%, read-out: IC₅₀
Protocol: Inhibition of platelet aggregation induced by PAF.
The blood is obtained by cardiac puncture of male New Zealand albino rabbits (between 2 and 2.5 Kg of weight) and coagulation is prevented by adding 1 part of 3.16% sodium citrate dihydrate in 9 parts of blood. The platelet rich plasma (PRP) is prepared by blood centrifugation at 250xg for 10 min. at 4°C and it is diluted with platelet poor plasma (PPP) obtained by additional centrifugation at 3000xg for 10 min. The amount of platelets is adjusted to […]. The platelet aggregation induced by PAF (C₁₈, prepared in our laboratory) (16 nM, final) is determined by the Born nephelometric technique (J. Physiol., 1962, 162, 67) using an aggregometer Chrono-log 500. The activities of the inhibitors are expressed as IC₅₀ values, that is to say the concentration of the drug needed to inhibit the platelet aggregation in a 50%.

[2] = tested on: hypotension induced by PAF; assay: Inhibition of the hypotensive effect induced by PAF in normotense rats; type: in vivo, Sprage Dawley rats; conditions: for ED50: Rattus norvegicus, iv, read-out: ID₅₀
Protocol: Inhibition of the hypotensive effect induced by PAF in normotense rats.
Male Sprage Dawley rats, of 180-220 g of weight, anesthetized with sodium pentobarbital (50 mg/Kg, i.p. 1 mL/100 g) have been used. In order to measure the average arterial pressure, a polyethylene catheter is introduced into the carotid artery. The arterial pressure is recorded with the help of a transducer connected with a R611 Beckman polygraph. The tested compounds are administered through the femoral vein 3 min. before the injection of PAF (0.5 mcg/Kg, i.v.) . The inhibition of the hypotension induced by PAF of the different compounds is expressed as ID₅₀, that is to say, the amount of compound by weight of animal (dose) needed to inhibit the hypotension induced by PAF in a 50%.

mortality induced by PAF = assay: Mortality induced by PAF in mice (p.o.); type: in vivo, Swiss mice; conditions: Mus musculus, oral administration 1 h before 100 mcg/kg PAF-C₁₈ + 1 mg/kg propanolol i.v., examined 2 h after PAF, dose inhibiting mortality in a 50%, read-out: ID₅₀
Protocol: Mortality induced by PAF in mice (p.o.).
This test was performed according to the procedure described by Young et al. (Prostaglandins, 1985, 30, 545-551). Groups of 10 Swiss mice weighing from 22 to 26 g were used. 100 mcg/kg of PAF-C₁₈ and 1 mg/kg of propanolol were administered through a lateral tail vein 1 h after the oral administration of the compounds to be tested (20 mL/kg). Animals were examined 2 h after the injection of PAF. The percentage of the inhibition of the mortality induced by PAF was determined for all the tested compounds in comparison with the control group. The results are expressed as ID₅₀ values, that is to say, the amount of compound by weight of animal (dose) needed to inhibit the mortality induced by PAF in a 50%.

[3] = anesthetized male rats, compound via femoral vein 3 min before PAF (0.5 mcg/Kg, i.v.), dose inhibiting PAF hypotension in a 50%

Row | IC50 [1] | SMILES | IC50 ([1]; Oryctolagus cuniculus) | ED50 [2, 3] | ED50 (mortality induced by PAF) | ED50 [2] | ID₅₀ [2, 3]
1 | – | Cc1ncccc1C(C#N)N1CCN(C(=O)CC(c2ccccc2)c2ccccc2)CC1.Cl.Cl (stereo not drawn) [Compound 1, 1-(3,3-Diphenylpropionyl)-4-[(2-methyl-3-pyridyl)cyanomethyl]piperazine, dihydrochloride] | 18 nM | 0.015 mg/kg | – | – | –
2 | – | Cc1ncccc1C(C#N)N1CCN(C(=O)CC(O)(c2ccccc2)c2ccccc2)CC1 (stereo not drawn) [Compound 4, 1-(3,3-Diphenyl-3-hydroxypropionyl)-4-[(2-methyl-3-pyridyl)cyanomethyl]piperazine] | 17 nM | 0.039 mg/kg | 0.69 mg/kg | – | –
3 | – | Cc1ncccc1C(C#N)N1CCN(C(=O)C=C(c2ccccc2)c2ccccc2)CC1 (stereo not drawn) [Compound 5, 1-(3,3-Diphenylpropenoyl)-4-[(2-methyl-3-pyridyl)cyanomethyl]piperazine] | 26 nM | 0.038 mg/kg | – | – | –
4 | – | Cc1ncccc1C(C#N)N1CCN(C(=O)CC(C)(O)c2ccccc2)CC1 (stereo not drawn) [Compound 9, 1-(3-Phenyl-3-hydroxybutanoyl)-4-[(2-methyl-3-pyridyl)cyanomethyl]piperazine] | 36 nM | – | – | – | –
5 | – | Cc1ncccc1C(C#N)N1CCN(C(=O)CC(O)(c2ccccc2)C(F)(F)F)CC1 (stereo not drawn) [Compound 11, 1-(3-Phenyl-3-hydroxy-3-(trifluoromethyl)propionyl)-4-[(2-methyl-3-pyridyl)cyanomethyl]piperazine] | 14 nM | 0.013 mg/kg | 0.44 mg/kg | – | –
6 | – | Cc1ncccc1C(C#N)N1CCN(C(=O)CC(NCc2ccccc2)c2ccccc2)CC1 (stereo not drawn) [Compound 15, 1-[3-(N-Benzylamino)-3-phenylpropionyl]-4-[(2-methyl-3-pyridyl)cyanomethyl]piperazine] | 9.1 nM | 0.035 mg/kg | 1.2 mg/kg | – | –
7 | – | Cc1ncccc1C(C#N)N1CCN(C(=O)CC(NC(=O)c2ccccc2)c2ccccc2)CC1 (stereo not drawn) [Compound 16, 1-[3-(N-Benzoylamino)-3-phenylpropionyl]-4-[(2-methyl-3-pyridyl)cyanomethyl]piperazine] | 9.1 nM | 0.056 mg/kg | – | – | –
8 | – | CC(=O)NC(CC(=O)N1CCN(C(C#N)c2cccnc2C)CC1)c1ccccc1 (stereo not drawn) [Compound 17, 1-[3-(N-acetylamino)-3-phenylpropionyl]-4-[(2-methyl-3-pyridyl)cyanomethyl]piperazine] | 38 nM | 0.035 mg/kg | 0.09 mg/kg | – | –
9 | – | Cc1ncccc1C(C#N)N1CCN(C(=O)CCC(c2ccccc2)c2ccccc2)CC1 (stereo not drawn) [Compound 18, 1-(4,4-Diphenylbutanoyl)-4-[(2-methyl-3-pyridyl)cyanomethyl]piperazine] | 80 nM | 0.028 mg/kg | – | – | –
10 | – | Cc1ncccc1C(C#N)N1CCN(C(=O)CNC(c2ccccc2)c2ccccc2)CC1 (stereo not drawn) [Compound 22, 1-[N-(Diphenylmethyl)aminoacetyl]-4-[(2-methyl-3-pyridyl)cyanomethyl]piperazine] | 85 nM | 0.021 mg/kg | 0.3 mg/kg | – | –
11 | – | Cc1ncccc1C(C#N)N1CCN(C(=O)[C@H](C)NC(c2ccccc2)c2ccccc2)CC1 (stereo partly drawn) [Compound 28, 1-[(S)-2-(N-(Diphenylmethyl)amino)propionyl]-4-[(2-methyl-3-pyridyl)cyanomethyl]piperazine] | 13 nM | 0.025 mg/kg | 1.6 mg/kg | – | –
12 | – | Cc1ncccc1C(C#N)N1CCN(C(=O)CCNC(c2ccccc2)c2ccccc2)CC1 (stereo not drawn) [Compound 34, 1-[3-(N-(Diphenylmethyl)amino)propionyl]-4-[(2-methyl-3-pyridyl)cyanomethyl]piperazine] | 110 nM | 0.044 mg/kg | 0.62 mg/kg | – | –
13 | – | Cc1ncccc1C(C#N)N1CCN(C(=O)COC(c2ccccc2)c2ccccc2)CC1 (stereo not drawn) [Compound 36, 1-[(Diphenylmethoxy)acetyl]-4-[(2-methyl-3-pyridyl)cyanomethyl]piperazine] | 42 nM | 0.048 mg/kg | – | – | –
14 | – | COC(=O)NC(CC(=O)N1CCN(C(C#N)c2cccnc2C)CC1)c1ccccc1 (stereo not drawn) [Compound 41, 1-[3-(N-(Methoxycarbonyl)amino)-3-phenylpropionyl]-4-[(2-methyl-3-pyridyl)cyanomethyl]piperazine] | 41 nM | 0.015 mg/kg | 0.044 mg/kg | – | –
15 | – | CCOC(=O)NC(CC(=O)N1CCN(C(C#N)c2cccnc2C)CC1)c1ccccc1 (stereo not drawn) [Compound 42, 1-[3-(N-(Ethoxycarbonyl)amino)-3-phenylpropionyl]-4-[(2-methyl-3-pyridyl)cyanomethyl]piperazine] | 14 nM | 0.025 mg/kg | 0.23 mg/kg | – | –
16 | – | Cc1ncccc1C(C#N)N1CCN(C(=O)CC(NC(=O)Oc2ccccc2)c2ccccc2)CC1 (stereo not drawn) [Compound 44, 1-[3-(N-(Phenoxycarbonyl)amino)-3-phenylpropionyl]-4-[(2-methyl-3-pyridyl)cyanomethyl]piperazine] | 16 nM | – | – | 0.036 mg/kg | –
17 | – | Cc1ncccc1C(C#N)N1CCN(C(=O)CC(NC(=O)c2cccnc2)c2ccccc2)CC1 (stereo not drawn) [Compound 60, 1-[3-(N-(3-pyridylcarbonyl)amino)-3-phenylpropionyl]-4-[(2-methyl-3-pyridyl)cyanomethyl]piperazine] | 8.9 nM | 0.029 mg/kg | 0.41 mg/kg | – | –
18 | – | Cc1ncccc1C(C#N)N1CCN(C(=O)CC(c2ccccc2)N2CCCC2=O)CC1 (stereo not drawn) [Compound 66, 1-[3-(2-oxo-1-pyrrolidinyl)-3-phenylpropionyl]-4-[(2-methyl-3-pyridyl)cyanomethyl]piperazine] | 29 nM | 0.026 mg/kg | 0.13 mg/kg | – | –
19 | – | Cc1ncccc1C(C#N)N1CCN(C(=O)CC(c2ccccc2)N2CCOC2=O)CC1 (stereo not drawn) [Compound 68, 1-[3-(2-oxo-3-oxazolidinyl)-3-phenylpropionyl]-4-[(2-methyl-3-pyridyl)cyanomethyl]piperazine] | 63 nM | 0.029 mg/kg | 0.3 to 1 mg/kg | – | –
20 | – | Cc1ncccc1C(C#N)N1CCN(C(=O)CC(Nc2ccccc2)c2ccccc2)CC1 (stereo not drawn) [Compound 74, 1-[3-(N-phenylamino)-3-phenylpropionyl]-4-[(2-methyl-3-pyridyl)cyanomethyl]piperazine] | 28 nM | 0.042 mg/kg | 0.27 mg/kg | – | –
21 | – | CC(=O)N(O)C(CC(=O)N1CCN(C(C#N)c2cccnc2C)CC1)c1ccccc1 (stereo not drawn) [Compound 75, 1-[3-(N-acetyl-N-hydroxyamino)-3-phenylpropionyl]-4-[(2-methyl-3-pyridyl)cyanomethyl]piperazine] | 62 nM | 0.027 mg/kg | 0.061 mg/kg | – | –
22 | – | Cc1ncccc1C(C#N)N1CCN(C(=O)CC(c2ccccc2)N(O)C(N)=O)CC1 (stereo not drawn) [Compound 76, 1-[3-(N-carbamoyl-N-hydroxyamino)-3-phenylpropionyl]-4-[(2-methyl-3-pyridyl)cyanomethyl]piperazine] | 69 nM | – | – | – | –
23 | – | CNC(=O)N(O)C(CC(=O)N1CCN(C(C#N)c2cccnc2C)CC1)c1ccccc1 (stereo not drawn) [Compound 77, 1-[3-(N-methylcarbamoyl-N-hydroxyamino)-3-phenylpropionyl]-4-[(2-methyl-3-pyridyl)cyanomethyl]piperazine] | 3000 nM | 0.045 mg/kg | – | – | –
24 | 82 nM | Cc1ncccc1C(C#N)N1CCN(C(=O)CC(NC(=O)N(C)O)c2ccccc2)CC1 (stereo not drawn) [Compound 78, 1-[3-(N-(N'-hydroxy-N'-methylcarbamoyl)amino)-3-phenylpropionyl]-4-[(2-methyl-3-pyridyl)cyanomethyl]piperazine] | – | – | – | – | 0.055 mg/Kg i.v.
